Measured values reported in patent US20250177478A1, “G ALPHA Q/11 INHIBITORS FOR USE AS AN ANALGESIC” (University of Florida Research Foundation, Incorporated, priority 2022, published 2025).

Tests used:
DRG nociceptors = assay: Whole cell patch-clamp recordings of acutely dissociated DRG nociceptors; assay type: cell-based, mouse
Method: F. Acutely dissociated dorsal root ganglion (DRG) Preparation. Male or female mice between 1 and 2 months of age were used for acute DRG isolations. […] Dissociated DRG cultures were prepared as previously described (Perner C et al. “Protocol for dissection and culture of murine dorsal root ganglia neurons to study neuropeptide release.” STAR Protoc (2021) 2:100333). Briefly, DRGs were dissected from 1- to 2-month-old mice in Hank's buffered salt solution (HBSS) and digested with Collagenase A and Dispase II for 25 min at 37° C., centrifuged at 200×g for 5 min, and washed with Dulbecco's modified Eagle's medium (DMEM) supplemented with 10% fetal bovine serum (FBS), glutamate, sodium pyruvate, 1% penicillin and 1% streptomycin. DRGs were then triturated in Neurobasal A medium supplemented with 10% FBS, 1% penicillin, 1% streptomycin, 1% GlutaMAX, 2% B27, […] nerve growth factor (NGF) and […] glial cell line-derived neurotrophic factor (GDNF). After plating on laminin-coated coverslips, cells were incubated at 37° C. overnight. Experiments were performed the day after dissection.
G. Whole cell patch-clamp recordings. Nociceptors were identified by physiological classification protocols (Petruska J C et al. “Subclassified acutely dissociated cells of rat DRG: histochemistry and patterns of capsaicin-, proton-, and ATP-activated currents.” J Neurophysiol (2000) 84:2365-2379) summarized in FIG. 10 and further by responsivity to morphine. Each experimental group consisted of 12-18 DRG recordings from three animals, 1-2 of which were female. Hyperpolarization-activated current (Ih) and kinetics of resulting transient currents were determined by stepping membrane potential from −60 to −110 mV for 500 ms in 10 mV increments (FIG. 10A). Outward currents were identified by first preconditioning membrane potential at −100 mV for 500 ms and then stepping from −60 to 40 mV in 20 mV increments for 200 ms (FIG. 10D). Inward current dynamics were determined by preconditioning at −80 mV and then stepping from −60 to 40 mV in 10 mV increments (FIG. 10G). A 6-s, 0- to 2-nA continuous ramp stimulation protocol was used to determine rheobase. Membrane capacitance (Cm), series resistance (Rs) and input resistance (Ri) were tested with a hyperpolarizing 10 mV pulse of 10 ms duration initially and at a 30 s interval throughout the recording period. Cells were recorded only if initial series resistance was ≤20 MΩ and excluded if Rs varied >20% while recording. Offline analysis identified clustering of a population n=30 with uniform morphine responsivity that was selected for further analysis, with basal parameters #SEM: Cm=27.31±4.72 pF, Ri=492±19.29 MQ, Ih=7.10±2.45 pA·pF−1, IA tau=8.39±0.41 ms and action potential (AP) tau=1.22±0.08 ms. K+ internal was used for all recordings, containing: 6 mM NaCl, 4 mM NaOH, 130 mM K-gluconate, 11 mM ethylene glycol-bis(β-aminoethyl ether)tetraacetic acid (EGTA), 1 mM CaCl2, 1 mM MgCl2, 10 mM N-(2-hydroxyethyl)piperazine-N′-(2-ethanesulphonic acid) (HEPES), 2 mM Na2ATP, and 0.2 mM Na2GTP 0.2, adjusted to pH 7.3-7.4 with HCl. External artificial CSF contained: 125 mM NaCl, 3 mM KCl, 1.2 mM KH2PO4, 1.2 mM MgSO4, 25 mM NaHCO3, 2 mM CaCl2), and 10 mM dextrose 10, adjusted to pH 7.3-7.4 with HCl.

C57BL/6 mice = settings: morphine 5 mg/kg s.c. alone, 120 min
Excerpt: A. Experimental animals. C57BL/6 mice (6-8 weeks old) of both sexes were used. Mice were housed in groups on a 12-h light-dark cycle (6:00 am light cycle; 6:00 pm dark cycle) with food (Teklad Global 16% protein rodent diets; Envigo Inc., WI, USA) and water available ad libitum. Animal groups were compiled to ensure minimization of factors (e.g., weight, sex, and health). Mice were within 20-28 g in weight at start of all studies. All tested groups contained a control group and consisted of male and female mice. Males and females were tested on the same day but at different times so that they were not in the room at the same time. All the experiments were tested during the light cycle between 8:00 am and 3:00 pm to avoid any long-term disruption of sleep cycles. Mice were transferred to the behavioural testing room at least 45 min before the first test to acclimatize. Following behavioural evaluation, animals were killed by CO2 inhalation, followed by cervical dislocation and postmortem decapitation.
B. Drug treatments. […] The dose of YM-254890 for subcutaneous injection was taken from previous published studies. The dose of morphine selected for subcutaneous administration (2.5, 5 and 10 mg kg-1) is commonly used in mouse analgesia. For the combined administration of morphine and YM-254890 on thermal anti-nociception, YM-254890 was administered 10 min before the morphine. The latency of response was measured before injection of drugs (baseline latency response) and at different time intervals (post-treatment latency response) after drugs injection.
C. Intrathecal injections. Intrathecal (i.t.) administration was performed following the method described previously (Hylden J L et al. “Intrathecal morphine in mice: a new technique.” Eur J Pharmacol (1980) 67:313-316; Li D et al. “Direct Intrathecal Injection of Recombinant Adeno-associated Viruses in Adult Mice.” J Vis Exp (2019)) with slight modifications. All intrathecal injections were performed using a 25 μL Hamilton syringe with a 30-gauge needle. The injection volume was 5 μL for each mouse. […] Each solution was injected without injection cannulae. Intrathecal injections were made into the L5-L6 intervertebral space of unanesthetized mice. The flick of the tail was considered indicative of a successful i.t. administration.

## CN1CC[C@]23c4c5ccc(O)c4O[C@H]2[C@@H](O)C=C[C@H]3[C@H]1C5 [morphine]
DRG nociceptors; YM-254890 or morphine alone
  rapidly inactivating A-type potassium currents (IA), voltage-step protocol 2: significantly inhibited IA
DRG nociceptors; bath application alone: 100 nM YM or 1 μM morphine
  AP amplitude, voltage-step protocol: moderately reduced AP amplitude
DRG nociceptors; bath application alone: 1 μM morphine or 100 nM YM
  excitability of DRG nociceptors (rheobase, 0-2 nA ramp stimulation): substantially decreased excitability
C57BL/6 mice
  locomotion in open-field test: locomotor-sensitizing effect
